Columns and labels:
HT-2 cells = assay: IL-2/IL-4 in supernatants of virus-restimulated MLN lymphocytes, HT-2 cell 3H-thymidine incorporation; format: cell-based, C57BL/6 mice
Experimental: Lymphocytes from MLN of the control group and IL-12 treated group of C57BL/6 mice were harvested 28 days after administration of H5.010CBALP and restimulated in vitro with UV-inactivated H5.010CMVlacZ at 10 particles/cell for 24 hours. Cell-free supernatants were assayed for the presence of IL-2 or IL-4 on HT-2 cells (an IL-2 or IL-4-dependent cell line) [Yang I, cited above]. Presence of IFN-γ in the same lymphocyte culture supernatant was measured on L929 cells as described [Yang I, cited above]. Stimulation index (S.I.) was calculated by dividing ^3H-thymidine cpm incorporated into HT-2 cells cultured in supernatants of lymphocytes restimulated with virus by ^3H-thymidine cpm incorporated into HT-2 cells cultured in supernatants of lymphocytes incubated in antigen-free medium.

H5.010CBlacZ = assay: Adenovirus-specific IgG and IgA in BAL by ELISA; format: in vivo, C57BL/6 mice; settings: day 28, versus control mice
Experimental: Adenovirus-specific antibody isotype was determined in BAL by using an enzyme-linked immunosorbent assay (ELISA). Briefly, 96-well plates were coated with 100 μl of PBS containing 5×10^9 particles of H5.010CBlacZ for 18 hours at 4° C. The wells were washed 5 times with PBS. After blocking with 200 μl of 2% BSA in PBS, the plates were rinsed once with PBS and incubated with 1:10 diluted BAL samples for 90 minutes at 4° C. Thereafter, the wells were extensively washed and refilled with 100 μl of 1:1000 diluted ALP-conjugated anti-mouse IgG or IgA (Sigma). The plates were incubated, subsequently washed 5 times, and 100 μl of the substrate solution (p-nitrophenyl phosphate, PNPP) was added to each well. Substrate conversion was stopped by the addition of 50 μl of 0.1M EDTA, and reactions were read at 405 nm.
The results are shown graphically in FIGS. 1A through 1C, which summarize neutralizing antibody titer, and the relative amounts (OD405) of IgG and IgA present in BAL samples.

[1] = system: recombinant adenoviruses H5.010CBALP and H5.010CMVlacZ; assay: Liver-directed adenovirus gene transfer and readministration (Example 3); format: in vivo, C57BL/6 mice
Experimental: Experiments substantially identical to those described in Example 2 above were conducted in which viral vectors were administered into the blood for introduction of the transgene into the liver (rather than intratracheal delivery into the lung).
Female C57BL/6 mice (6-8 weeks old) were injected with suspensions of H5.010CBALP (1×10^9 pfu in 50 μl of PBS) i.p. at day 0 and similarly with H5.010CMVlacZ at day 28. One group of such mice was used as a control. Another group of mice was acutely depleted of CD4^+ cells by i.p. injection of antibody to CD4^+ cells (GK1.5; ATCC No. TIB207, 1:10 dilution of ascites) at the time of the initial gene therapy (days −3, 0, and +3). A third group of mice was injected with IL-12 (2 μg, i.p. injections) at the time of the first administration of virus (days 0 and +1). A fourth group of mice was injected with gamma interferon (2 μg, i.p. injections) at the time of the first administration of virus (days 0 and +1) .
When mice were subsequently euthanized and necropsied at days 3, 28, or 31, liver tissues were prepared for cryosections according to the procedures used above for lung tissue in Example 2.
The cryosection results were substantially similar for liver-directed gene therapy according to this method as for the lung-directed therapy of Example 2 above. The results described below were obtained from the alkaline phosphatase histochemical stains (magnification ×100) or β-galactosidase X-gal stains (magnification ×100).

[2] = system: adenovirus (H5.010CMVlacZ); assay: Neutralizing antibody to adenovirus in serum; format: in vivo, C57BL/6 mice; settings: IL-12 i.p., liver-directed
Source text: Mice from each group were subsequently euthanized and liver tissues evaluated for lacZ expression by X-gal histochemistry (magnification ×100) at day 3 and day 28; and for ALP expression by histochemical staining at day 31 (magnification ×100). Development of neutralizing antibody to adenovirus in each group of mice was examined in serum samples obtained at day 28.
Serum samples were also collected at days 0, 3, 7, 14, 21, 28, 35 and 42 from each group of animals and assayed for neutralizing antibody titer. Serum samples were incubated at 56° C. for 30 minutes and then diluted in DMEM in twofold steps starting from 1:20. Each serum dilution (100 μl) was mixed with H5.010CMVlacZ (2×10^6 pfu in 20 μl), incubated for 1 hour at 37° C., and applied to 80% confluent Hela cells in 96-well plates (2×10^4 cells per well). After 60 minutes incubation at 37° C., 100 μl of DMEK containing 20% FBS were added to each well. Cells were fixed and stained for β-galactosidase expression on the following day. All of the cells stained blue in the absence of serum samples. […] FIGS. 3A-3D report the antibody titer expressed as a function of days post-infection.

H5.010CMVlacZ virus = assay: Adenovirus-specific IgG1 and IgG2a in serum by ELISA; format: in vivo, C57BL/6 mice; settings: 28 days after infection
Experimental: A. Serum samples obtained from the C57BL/6 mice (“B6”) and IL-12 treated C57BL/6 (“B6+IL12”) mice of Example 5 were tested 28 days after infection for adenovirus-specific IgG1 and IgG2a antibody isotypes.
A solid phase enzyme linked immunosorbent assay (ELISA) using purified H5.010CMVlacZ virus as antigen was performed. Immunolon-2-U microtiter plates (Fisher) were coated with 200 ng/well of viral antigen in […] of PBS for 6 hours at 37° C., washed three times in PBS, and blocked in PBS/1% BSA overnight at 4° C. The following day, 4-fold serial diluted serum samples were added to antigen-coated plates and incubated for 4 hours at 37° C. Plates were washed three times in PBS/1% BSA and incubated with goat anti-mouse IgG1-biotin or goat anti-mouse IgG2a-biotin (CALTAG Laboratories, San Francisco, Calif.) at 1:5000 dilution for 2 hours at 37° C. Plates were washed as above and Avidin-ALP (Sigma) was added to each well at 1:5000 dilution for 1 hour at 37° C. Wells were again washed as above and PNPP substrate was added. Optical densities were read on a Biorad model 450 microplate reader.

interleukin-12 [IL-12]
3H-Thymidine Incorporation (cpm ± SD), Medium (HT-2 cells; MLN lymphocytes 28 days after H5.010CBALP, antigen-free medium): 247 ± 34 cpm
3H-Thymidine Incorporation (cpm ± SD), H5.010CMVlacZ (HT-2 cells; MLN lymphocytes day 28, restimulated with UV-inactivated H5.010CMVlacZ 24 hours): 5203 ± 28 cpm
3H-Thymidine Incorporation (cpm ± SD), H5.010CMVlacZ (HT-2 cells; as E2, with anti-IL2 (1:5000)): 776 ± 50 cpm
3H-Thymidine Incorporation (cpm ± SD), H5.010CMVlacZ (HT-2 cells; as E2, with anti-IL4 (1:5000)): 4608 ± 52 cpm
ratio of IL-2/IL-4 (HT-2 cells; lymphocytes stimulated in vitro with virus, 3 without IL-12): 6
S.I. (stimulation index) (HT-2 cells; virus restimulated / antigen-free medium): 21.07
S.I. (stimulation index) (HT-2 cells; with anti-IL2 (1:5000)): 3.14
S.I. (stimulation index) (HT-2 cells; with anti-IL4 (1:5000)): 18.66
IgG in BAL (H5.010CBlacZ): without significantly impacting on formation of IgG
virus specific IgA in BAL (H5.010CBlacZ): selectively blocked secretion of antigen specific IgA
transgene expression after first administration of virus (ALP) ([1]; liver, days 3 and 28): diminished after about one month
gene transfer upon second administration of virus (lacZ) ([1]; liver, readministered day 28, read day 31): some gene transfer to the liver via the blood was achieved
neutralizing antibodies ([1]; liver-directed gene therapy, Example 3): the level of neutralizing antibody was reduced
reduction in neutralizing antibody [2]: 3 fold
anti-viral IgG1 in serum (H5.010CMVlacZ virus): less anti-viral IgG1
anti-viral IgG2a in serum (H5.010CMVlacZ virus): increased production of IgG2a
